Where a name gives a salt, the structure may show the parent alone. Read-outs that look alike come from different tables or passages of the source.
Legend:
SUDHL10 cells [1] = test: Induction of caspase-3/7 activity (Caspase-Glo 3/7), SUDHL10; format: cell-based; conditions: EC50, median, SUDHL10, 3 h treatment
In short: (§1)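 DLBCL lines were exposed to test compounds for 3 h at 37 °C in a humidified incubator, then caspase-3/7 activity was measured with Caspase-Glo 3/7 reagent. Medium-only background was subtracted from all readings.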

AMO-1 cells = test: Antiproliferation assay (CellTiter-Glo, 72 h), AMO-1; format: cell-based; conditions: IC50, median, AMO-1, 72 h, read-out: Antiproli AMO-1 [M] median
In short: (§2)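 Cells were exposed to compounds for 72 h at 37 °C in a humidified incubator, with rim wells excluded. Viability was read by CellTiter-Glo luminescence after a 10 min incubation. A parallel day 0 plate, read the same way, gave the time-zero baseline.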

HMC-1-8 cells = test: Antiproliferation assay (CellTiter-Glo, 72 h), HMC-1-8; format: cell-based; conditions: IC50, median, HMC-1-8, 72 h, read-out: Antiproli HMC-1-8 [M] median
In short: as §2

SNU-389 cells = test: Antiproliferation assay (CellTiter-Glo, 72 h), SNU-389; format: cell-based; conditions: 72 h; read-out: Antiproli SNU-389 [M] median
Experimental: (§3) Assessment of the Anti-Proliferative Effect of Compounds in Different Cell Lines
(§4) The impact of compounds on the proliferation of different cell lines was assessed using the CellTiter-Glo® Luminescent Cell Viability reagent from Promega (G7573).
(§5) In parallel, cells were plated in a reference (day 0) plate for time zero determination.
(§6) Rim wells were excluded. The cells were incubated for 72 h hours in a humidified incubator at 37° C. The day 0 plate was measured by adding 30 μL/well of CTG solution (CellTiter-Glo® Luminescent Cell Viability reagent, Promega G7573) to time zero wells in the reference plate followed by a 10 minutes incubation and luminescence reading at 0.1 ms. using the PHERAstar FS microplate reader (BMG Labtech).
(§7) After 72 h incubation, the treated plates were measured in the same way as the day 0 plate mentioned above.

DMS-114 cells = test: Antiproliferation assay (CellTiter-Glo, 72 h), DMS-114; format: cell-based; conditions: Homo sapiens, DMS-114, 72 h; read-out: Antiproli DMS-114 [M] median
Experimental: as §3, §4, §5, §6, §7

SUDHL5 cells [2] = test: Induction of cytotoxicity (CellTiter-Glo, 5 h), SUDHL5; conditions: SUDHL5, 5 h
SUDHL10 cells [3] = test: Induction of cytotoxicity (CellTiter-Glo, 5 h), SUDHL10; conditions: SUDHL10, 5 h
SUDHL5 cells [4] = test: Induction of caspase-3/7 activity (Caspase-Glo 3/7), SUDHL5; format: cell-based; conditions: EC50, median, SUDHL5, 3 h treatment
In short: as §1

SUDHL5 cells [5] = test: Antiproliferation assay (CellTiter-Glo, 72 h), SUDHL5; format: cell-based; conditions: IC50, median, SUDHL5, 72 h, read-out: Antiproli SUDHL5 [M] (median)
In short: as §2

MV-4-11 cells = test: Antiproliferation assay (CellTiter-Glo, 72 h), MV-4-11; format: cell-based; conditions: IC50, median; MV-4-11, 72 h; read-out: Antiproli MV-4-11 [M] median
Experimental: as §3, §4, §5, §6, §7

[6] = Homo sapiens, SU-DHL10, 5 h, read-out: Cytotox SUDHL10 [M] (median), IC50, median
[7] = read-out: Cytotox SUDHL5 [M] (median), IC50, median
[8] = read-out: Cytotox SUDHL10 [M] (median), IC50, median

| Structure (SMILES) | EC50 (SUDHL10 cells [1]; Homo sapiens, SU-DHL10, 3 h) [nM] | IC50 (SNU-389 cells) [M] | IC50 (SUDHL5 cells [5]) [M] | IC50 (AMO-1 cells; Homo sapiens, AMO1, 72 h) [M] | IC50 (HMC-1-8 cells; 72 h) [M] | IC50 (DMS-114 cells) [M] | IC50 (AMO-1 cells) [M] | other results |
| --- | --- | --- | --- | --- | --- | --- | --- | --- |
| CCc1c2c(nn1C)CN(C)CCCCn1c(C(=O)O)c(CCCOc3cccc4cc(F)ccc34)c3ccc(Cl)c-2c31 (single isomer, unassigned; enantiomer 1) [Example 6, 4-chloro-3-ethyl-7-{3-[(6-fluoronaphthalen-1-yl)oxy]propyl}-2,14-dimethyl-10,11,12,13,14,15-hexahydro-2H-pyrazolo[3′,4′:8,9][1,6]diazacycloundecino[10,11,1-hi]indole-8-carboxylic acid (Enantiomer 1)] | 220 | 6.96e-07 | – | – | 3.4e-06 | 4.97e-07 | 2.4e-07 | IC50 (SUDHL5 cells [2]; [7]): 1.5e-07 M; IC50 (SUDHL10 cells [3]; [8]): 3.6e-07 M |
| CCc1c2c(nn1C)COCCCCn1c(C(=O)O)c(CCCOc3cccc4cc(F)ccc34)c3ccc(Cl)c-2c31 (single isomer, unassigned; enantiomer 1) [Example 37, (+)-4-chloro-3-ethyl-7-{3-[(6-fluoronaphthalen-1-yl)oxy]propyl}-2-methyl-2,10,11,12,13,15-hexahydropyrazolo[4′,3′:9,10][1,6]oxazacycloundecino[8,7,6-hi]indole-8-carboxylic acid-N-ethylethanamine salt (Enantiomer 1)] | 330 | 1.05e-06 | – | 3.6e-07 | 1.6e-06 | 1.12e-06 | – | IC50 (SUDHL10 cells [3]; [6]): 4.3e-07 M |
| Cc1c2c(nn1C)COCC(F)(F)CCn1c(C(=O)O)c(CCCOc3cccc4ccccc34)c3ccc(Cl)c-2c31 (single isomer, unassigned; enantiomer 1) [Example 56, 4-chloro-12,12-difluoro-2,3-dimethyl-7-{3-[(naphthalen-1-yl)oxy]propyl}-2,10,11,12,13,15-hexahydropyrazolo[4′,3′:9,10][1,6]oxazacycloundecino[8,7,6-hi]indole-8-carboxylic acid-N-ethylethanamine salt—Enantiomer 1] | – | 1.23e-06 | 3.4e-07 | – | – | 7.79e-07 | 4.4e-07 | EC50 (SUDHL5 cells [4]): 130 nM; EC50 (SUDHL10 cells [1]): 310 nM; IC50 (HMC-1-8 cells): 3.3e-06 M; IC50 (SUDHL5 cells [2]; [7]): 2.2e-07 M; IC50 (SUDHL10 cells [3]; [8]): 3.3e-07 M |
| Cc1c2c(nn1C)COCCCCn1c(C(=O)O)c(CCCOc3cccc4ccccc34)c3ccc(Cl)c-2c31 (single isomer, unassigned; enantiomer 2) [Example 27, 4-chloro-2,3-dimethyl-7-[3-(naphthalen-1-yloxy)propyl]-2,10,11,12,13,15-hexahydropyrazolo-[4′,3′:9,10][1,6]oxazacycloundecino[8,7,6-hi]indole-8-carboxylic acid-N-ethylethanamine salt (Enantiomer 2)] | – | – | 7.8e-06 | – | – | – | – | IC50 (MV-4-11 cells): 1.61e-05 M |
| CCc1nn(C)c2c1-c1c(Cl)ccc3c(CCCOc4cccc5cc(F)ccc45)c(C(=O)O)n(c13)CCCCN(C)C2 (single isomer, unassigned; enantiomer 2) [Example 41, 4-chloro-3-ethyl-7-{3-[(6-fluoronaphthalen-1-yl)oxy]propyl}-1,14-dimethyl-10,11,12,13,14,15-hexahydro-1H-pyrazolo[3′,4′:8,9][1,6]diazacycloundecino[10,11,1-hi]indole-8-carboxylic acid (Enantiomer 2)] | – | 5.56e-07 | 1.5e-07 | – | 7e-07 | 3.65e-07 | 5.4e-07 | – |
| CCc1c2c(nn1C)COCC(O)CCn1c(C(=O)O)c(CCCOc3cccc4cc(F)ccc34)c3ccc(Cl)c-2c31 (stereo not shown) [Example 100, 4-chloro-3-ethyl-7-{3-[(6-fluoronaphthalen-1-yl)oxy]propyl}-12-hydroxy-2-methyl-2,10,11,12,13,15-hexahydropyrazolo[4′,3′:9,10][1,6]oxazacycloundecino[8,7,6-hi]indole-8-carboxylic acid-N-ethylethanamine salt] | – | 1.18e-06 | 1.9e-07 | – | – | 1.85e-07 | 6.7e-07 | EC50 (SUDHL5 cells [4]): 220 nM; EC50 (SUDHL10 cells [1]): 120 nM; IC50 (HMC-1-8 cells): 5e-06 M; IC50 (SUDHL5 cells [2]; [7]): 1.8e-07 M; IC50 (SUDHL10 cells [3]; [8]): 1.8e-07 M |

Second part, led by results:

| EC50 (SUDHL10 cells [1]; Homo sapiens, SU-DHL10, 3 h) [nM] | IC50 (SNU-389 cells) [M] | IC50 (SUDHL5 cells [5]) [M] | Structure (SMILES) | IC50 (AMO-1 cells; Homo sapiens, AMO1, 72 h) [M] | IC50 (HMC-1-8 cells; 72 h) [M] | IC50 (DMS-114 cells) [M] | IC50 (AMO-1 cells) [M] | other results |
| --- | --- | --- | --- | --- | --- | --- | --- | --- |
| 150 | 1.09e-06 | – | CCc1nn(C)c2c1-c1c(Cl)ccc3c(CCCOc4cccc5cc(F)ccc45)c(C(=O)O)n(c13)CCCCN(C)C2 (racemic) [Example 39, (rac)-4-chloro-3-ethyl-7-{3-[(6-fluoronaphthalen-1-yl)oxy]propyl}-1,14-dimethyl-10,11,12,13,14,15-hexahydro-1H-pyrazolo[3′,4′:8,9][1,6]diazacycloundecino[10,11,1-hi]indole-8-carboxylic acid] | 2.4e-07 | 3.3e-06 | 6.38e-07 | – | IC50 (SUDHL5 cells [2]; Homo sapiens, SU-DHL-5, 5 h, read-out: Cytotox SUDHL5 [M] (median), IC50, median): 1.5e-07 M; IC50 (SUDHL10 cells [3]; [6]): 2.4e-07 M |
| 210 | 1.52e-06 | – | Cc1c2c(nn1C)COCCn1c(C(=O)O)c(CCCOc3cccc4ccccc34)c3ccc(Cl)c-2c31 (racemic) [Example 87, (rac)-11-chloro-9,10-dimethyl-1-{3-[(naphthalen-1-yl)oxy]propyl}-4,5,7,9-tetrahydropyrazolo[4′,3′:7,8][1,4]oxazonino[6,5,4-hi]indole-2-carboxylic acid] | 3.8e-07 | 4.7e-06 | 1.32e-06 | – | EC50 (SUDHL5 cells [4]; Homo sapiens, SU-DHL-5, 3 h): 170 nM; IC50 (SUDHL5 cells [5]; Homo sapiens, SU-DHL-5, 72 h): 5.5e-07 M; IC50 (SUDHL10 cells [3]; [6]): 2.6e-07 M |
| 180 | 1.7e-06 | – | CCc1c2c(nn1C)CN(C)CCCCn1c(C(=O)O)c(CCCOc3cccc4ccccc34)c3ccc(Cl)c-2c31 (single isomer, unassigned; enantiomer 1) [Example 23, 4-chloro-3-ethyl-2,14-dimethyl-7-[3-(naphthalen-1-yloxy)propyl]-10,11,12,13,14,15-hexahydro-2H-pyrazolo[3′,4′:8,9][1,6]diazacycloundecino[10,11,1-hi]indole-8-carboxylic acid (Enantiomer 1)] | 6.1e-07 | 5.2e-06 | 2.06e-06 | – | – |
| – | 3.85e-07 | – | CCc1c2c(nn1C)CN(CCC1CCOCC1)CCCCn1c(C(=O)O)c(CCCOc3cccc4cc(F)ccc34)c3ccc(Cl)c-2c31 (single isomer, unassigned; enantiomer 1) [Example 136, 4-chloro-3-ethyl-7-{3-[(6-fluoronaphthalen-1-yl)oxy]propyl}-2-methyl-14-[2-(oxan-4-yl)ethyl]-10,11,12,13,14,15-hexahydro-2H-pyrazolo[3′,4′:8,9][1,6]diazacycloundecino[10,11,1-hi]indole-8-carboxylic acid N-ethylethanamine salt (Enantiomer 1)] | – | 7.3e-07 | 2.35e-07 | – | – |
| – | 4.97e-07 | – | CCc1c2c(nn1C)CN(CCOC)CCCCn1c(C(=O)O)c(CCCOc3cccc4cc(F)ccc34)c3ccc(Cl)c-2c31 (single isomer, unassigned; enantiomer 2) [Example 133, 4-chloro-3-ethyl-7-{3-[(6-fluoronaphthalen-1-yl)oxy]propyl}-14-(2-methoxyethyl)-2-methyl-10,11,12,13,14,15-hexahydro-2H-pyrazolo[3′,4′:8,9][1,6]diazacycloundecino[10,11,1-hi]indole-8-carboxylic acid N-ethylethanamine salt (Enantiomer 2)] | – | 1e-06 | 3.85e-07 | – | – |
